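Each compound was tested at five concentrations against cells in 96-well plates for 48 hours. Abbreviation: GI50, concentration required for 50% inhibition of growth. TGI: concentration producing complete growth inhibition.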
Columns and labels:
Experiment in all cases: NCI anticancer screen, dose series, 48 h
[1] = system: 786-0 renal
[2] = system: A498 renal
[3] = system: A549 NSCLC
[4] = system: ACHN renal
[5] = system: BT-549 breast
[6] = system: CAKI-1 renal
[7] = system: CCRF-CEM leukemia
[8] = system: DU-145 prostate
[9] = system: EKVX NSCLC
[10] = system: HCC-2998 colon
[11] = system: HCT-116 colon
[12] = system: HCT-15 colon
[13] = system: HL-60(TB) leukemia
[14] = system: HOP-62 NSCLC
[15] = system: HOP-92 NSCLC
[16] = system: HS 578T breast
[17] = system: HT29 colon
[18] = system: IGROV1 ovarian
[19] = system: K-562 leukemia
[20] = system: KM12 colon
[21] = system: LOX IMVI melanoma
[22] = system: M14 melanoma
[23] = system: MALME-3M melanoma
[24] = system: MCF7 breast
[25] = system: MDA-MB-231 breast
[26] = system: MDA-MB-435
[27] = system: MOLT-4 leukemia
[28] = system: NCI-H226 lung
[29] = system: NCI-H23 lung
[30] = system: NCI-H460 lung
[31] = system: NCI-H522 lung
[32] = system: NCI/ADR-RES ovarian
[33] = system: OVCAR-3 ovarian
[34] = system: OVCAR-4 ovarian
[35] = system: OVCAR-5 ovarian
[36] = system: OVCAR-8 ovarian
[37] = system: PC-3 prostate
[38] = system: RPMI-8226 leukemia
[39] = system: RXF 393 renal
[40] = system: SF-268 CNS
[41] = system: SF-295 CNS
[42] = system: SF-539 CNS
[43] = system: SK-MEL-2 melanoma
[44] = system: SK-MEL-28 melanoma
[45] = system: SK-MEL-5 melanoma
[46] = system: SK-OV-3 ovarian
[47] = system: SN12C renal
[48] = system: SNB-19 CNS
[49] = system: SNB-75 CNS
[50] = system: SR leukemia
[51] = system: SW-620 colon
[52] = system: T-47D breast
[53] = system: TK-10 renal
[54] = system: U251 CNS
[55] = system: UACC-257 melanoma
[56] = system: UACC-62 melanoma
[57] = system: UO-31 renal

Work on O=C1N[C@@H]2[C@@H](O)[C@@H](O)[C@H](O)C[C@H]2c2cc3c(c(O)c21)OCO3 yielded a GI50 [1] of 174 nM, a TGI [1] of 1590 nM and a GI50 [2] of 200 nM. The TGI [2] was 541 nM, the GI50 [3] was 185 nM and the TGI [3] was 2230 nM. For the same compound, the GI50 [4] was 132 nM, the TGI [4] was 825 nM and the GI50 [5] was 206 nM. It also gave a TGI [5] of 803 nM, a GI50 [6] of 142 nM and a TGI [6] of 1160 nM. The GI50 [7] was 105 nM, the GI50 [8] was 90.7 nM and the TGI [8] was 647 nM. It also gave a GI50 [9] of 193 nM, a TGI [9] of 1260 nM and a GI50 [10] of 95.7 nM. For the same compound, the TGI [10] was 418 nM, the GI50 [11] was 66 nM and the TGI [11] was 1070 nM. For the same compound, the GI50 [12] was 116 nM, the TGI [12] was 1300 nM and the GI50 [13] was 97.3 nM. For the same compound, the TGI [13] was 472 nM, the GI50 [14] was 97.7 nM and the TGI [14] was 883 nM. It also gave a GI50 [15] of 86.8 nM, a TGI [15] of 890 nM and a GI50 [16] of 113 nM. For the same compound, the TGI [16] was 713 nM, the GI50 [17] was 119 nM and the TGI [17] was 1050 nM. It also gave a GI50 [18] of 207 nM, a TGI [18] of 1470 nM and a GI50 [19] of 83.4 nM. For the same compound, the TGI [19] was > 100000 nM, the GI50 [20] was 77.8 nM and the TGI [20] was 584 nM. It also gave a GI50 [21] of 53.6 nM, a TGI [21] of 224 nM and a GI50 [22] of 81.3 nM. The TGI [22] was 357 nM, the GI50 [23] was 128 nM and the TGI [23] was 537 nM. For the same compound, the GI50 [24] was 65.6 nM, the TGI [24] was 881 nM and the GI50 [25] was 136 nM. For the same compound, the TGI [25] was 926 nM, the GI50 [26] was 113 nM and the TGI [26] was 648 nM. The GI50 [27] was 143 nM, the TGI [27] was > 100000 nM and the GI50 [28] was 128 nM. The TGI [28] was 699 nM, the GI50 [29] was 102 nM and the TGI [29] was 544 nM. It also gave a GI50 [30] of 83.8 nM, a TGI [30] of 743 nM and a GI50 [31] of 85.2 nM. It also gave a TGI [31] of 527 nM, a GI50 [32] of 223 nM and a TGI [32] of 1650 nM. The GI50 [33] was 147 nM, the TGI [33] was 794 nM and the GI50 [34] was 99.4 nM. For the same compound, the TGI [34] was 975 nM, the GI50 [35] was 238 nM and the TGI [35] was 1610 nM. It also gave a GI50 [36] of 100 nM, a TGI [36] of 1390 nM and a GI50 [37] of 193 nM. It also gave a TGI [37] of 1630 nM, a GI50 [38] of 169 nM and a TGI [38] of 687 nM. It also gave a GI50 [39] of 131 nM, a TGI [39] of 562 nM and a GI50 [40] of 144 nM. The TGI [40] was 991 nM, the GI50 [41] was 157 nM and the TGI [41] was 1050 nM. For the same compound, the GI50 [42] was 101 nM, the TGI [42] was 548 nM and the GI50 [43] was 98.4 nM. The TGI [43] was 415 nM, the GI50 [44] was 96.5 nM and the TGI [44] was 608 nM. For the same compound, the GI50 [45] was 84.1 nM, the TGI [45] was 344 nM and the GI50 [46] was 211 nM. The TGI [46] was 2100 nM, the GI50 [47] was 93.6 nM and the TGI [47] was 1030 nM. The GI50 [48] was 73.7 nM, the TGI [48] was 899 nM and the GI50 [49] was 89.8 nM. For the same compound, the TGI [49] was 861 nM, the GI50 [50] was 103 nM and the TGI [50] was > 100000 nM. The GI50 [51] was 91.8 nM, the TGI [51] was 3260 nM and the GI50 [52] was 79.9 nM. The TGI [52] was 2120 nM, the GI50 [53] was 264 nM and the TGI [53] was 1730 nM. For the same compound, the GI50 [54] was 73.6 nM, the TGI [54] was 1060 nM and the GI50 [55] was 131 nM. For the same compound, the TGI [55] was 894 nM, the GI50 [56] was 178 nM and the TGI [56] was 830 nM. It also gave a GI50 [57] of 147 nM and a TGI [57] of 1110 nM.

Reference: PubChem BioAssay (NCI)
